The test system of assay [1] is PBMCs. Kind of assay: LPS-induced TNFα/IL-8 release in PBMC cells. The class given is cell-based. As to conditions: Homo sapiens, read-out: IC50 Values for Inhibition of Cytokine Release PBMCs IL-8. In short, it runs like this:
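TNFα and IL-8 in supernatants were measured by sandwich ELISA after 24 h of 1 ng/mL LPS (E. coli O111:B4) at 37 °C, 5% CO2. Test compounds were added 2 h before LPS to PBMCs from healthy subjects, separated on a density gradient.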

Assay [2] deals with HT29 cells. Kind of assay: IL-1β-induced IL-8 release in HT29 cells. The class given is cell-based. The conditions noted are these: Homo sapiens. Here is the method: HT29 cells, a human colon adenocarcinoma cell line, are plated in a 96 well plate (24 hrs) and pre-treated with compounds at the desired concentration for 2 hours before addition of 5 ng/mL of IL-1β (Abcam) for 24 hours. Supernatants are harvested for IL-8 quantification by Sandwich ELISA (Duo-set, R&D System). The IC50 is determined from the dose response curve.

In assay [3] the test system is PBMCs. Kind of assay: IL-2 and IFN gamma release in CD3/CD28 stimulated PBMC cells. The conditions noted are these: Homo sapiens. The assay is classed as cell-based. In short, it runs like this: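 They were cultured with compound for 3 days. IL-2 and IFN-γ in supernatants were quantified by sandwich ELISA, and IC50 was derived from the dose-response curve.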
Assay [4] has as its target GSK3α (Homo sapiens (Human), UniProt P49840). The assay can be described thus: GSK 3α enzyme inhibition (Z-LYTE FRET, Method 2). The assay is classed as biochemical. In short, it runs like this:
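Z-LYTE FRET: GSK3α preincubated with compound 2 h at RT, then FRET peptide and ATP added (stocks 8 μM and 40 μM) for 1 h, followed by 1 h protease development. Compound stocks 4–0.004 μg/mL; phosphorylation from coumarin/fluorescein emission ratio.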

The target of assay [5] is c-Src (Homo sapiens (Human), UniProt P12931). Kind of assay: c-Src enzyme inhibition (Z-LYTE FRET). The class given is biochemical. In short, it runs like this:
(§1)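 Kinase activity is measured on a dual-labelled synthetic peptide by FRET. ATP is supplied as an 800 μM solution for c-Src and a 60 μM solution for Syk. Compound is tested at four added concentrations, 4 to 0.004 μg/mL.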

Assay [6] has as its target p38 MAPKα (Homo sapiens (Human), UniProt Q16539). The assay can be described thus: p38 MAPKα enzyme inhibition (Z-LYTE FRET, Method 2). The assay is classed as biochemical.
Assay [7] deals with d-U937 cells. Kind of assay: LPS-induced TNFα/IL-8 release in d-U937 cells. The assay is classed as cell-based. The conditions noted are these: Homo sapiens. Here is the method:
Cells are pre-incubated with final concentrations of test compound for 2 hr and are then stimulated with 0.1 μg/mL of LPS (from E. coli: O111:B4, Sigma) for 4 hr. The supernatant is collected for determination of TNFα and IL-8 concentrations by sandwich ELISA (Duo-set, R&D systems). […] The relative 50% effective concentration (REC50) is determined from the resultant concentration-response curve. The inhibition of IL-8 production is calculated at each concentration of test compound by comparison with vehicle control.

For assay [8], the target named is Syk (Homo sapiens (Human), UniProt P43405). The assay can be described thus: Syk enzyme inhibition (Z-LYTE FRET). The assay is classed as biochemical. The essentials: as §1
Assay [9] concerns TNBS-induced colitis. The conditions noted are these: for LP inflammation / Ulcer grade: oral gavage BID, conducted over 2 days, mice; for inflammatory cell infiltrate in the reticular and laminar propria zone / ulcer grade and epithelial repair compared to the vehicle control: dosed orally at either 1 or 5 mg/kg.
Experimental: On Day 0 of the study TNBS (200 μL) is administered intra-colonically via a plastic catheter followed by BID dosing of the vehicle, reference or test compound for 2 or 4 days. During the study animals are weighed every day and stool observations are made and recorded as a score, based on stool consistency. At the time of sacrifice on Day 2 (or Day 4) the large intestine is removed and the length and weight recorded. Sections of the colon are taken for either MPO analysis to determine neutrophil infiltration or for histopathology involving scoring to determine disease severity.
[10] abbreviates: HT-29, read-out: IC50 Values for Inhibition of Cytokine Release HT29 cells IL-8.
Where [11] appears, read: read-out: IC50 Values for Inhibition of Cytokine Release PBMCs IL-2.
Where [12] appears, read: dU937, read-out: IC50 Values for Inhibition of Cytokine Release dU937 cells IL-8.
The mark [13] stands for this setting: dU937, read-out: IC50 Values for Inhibition of Cytokine Release dU937 cells TNFα.
Setting [14] is: read-out: IC50 Values for Inhibition of Cytokine Release PBMCs IFNγ.

Like-named read-outs stand apart in the source and are kept apart here.

The IC50 is the point on the concentration scale where inhibition reaches its midpoint.

c-Src, sequence (P12931 whole entry, looked up): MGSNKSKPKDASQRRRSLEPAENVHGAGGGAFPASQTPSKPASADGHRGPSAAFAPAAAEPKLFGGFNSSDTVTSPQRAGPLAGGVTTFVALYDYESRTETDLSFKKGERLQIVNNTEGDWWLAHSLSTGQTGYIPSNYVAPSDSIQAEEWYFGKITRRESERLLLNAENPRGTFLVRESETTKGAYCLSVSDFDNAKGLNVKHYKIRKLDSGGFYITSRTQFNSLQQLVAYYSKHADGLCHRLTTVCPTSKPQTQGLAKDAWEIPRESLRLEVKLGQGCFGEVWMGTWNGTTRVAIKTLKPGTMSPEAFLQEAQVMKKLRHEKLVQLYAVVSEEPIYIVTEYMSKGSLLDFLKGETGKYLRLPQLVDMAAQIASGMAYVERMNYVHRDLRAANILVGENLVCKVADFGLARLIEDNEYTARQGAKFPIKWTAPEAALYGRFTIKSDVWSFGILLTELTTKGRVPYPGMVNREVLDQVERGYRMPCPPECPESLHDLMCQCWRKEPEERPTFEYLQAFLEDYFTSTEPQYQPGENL
GSK3α, sequence (P49840 whole entry): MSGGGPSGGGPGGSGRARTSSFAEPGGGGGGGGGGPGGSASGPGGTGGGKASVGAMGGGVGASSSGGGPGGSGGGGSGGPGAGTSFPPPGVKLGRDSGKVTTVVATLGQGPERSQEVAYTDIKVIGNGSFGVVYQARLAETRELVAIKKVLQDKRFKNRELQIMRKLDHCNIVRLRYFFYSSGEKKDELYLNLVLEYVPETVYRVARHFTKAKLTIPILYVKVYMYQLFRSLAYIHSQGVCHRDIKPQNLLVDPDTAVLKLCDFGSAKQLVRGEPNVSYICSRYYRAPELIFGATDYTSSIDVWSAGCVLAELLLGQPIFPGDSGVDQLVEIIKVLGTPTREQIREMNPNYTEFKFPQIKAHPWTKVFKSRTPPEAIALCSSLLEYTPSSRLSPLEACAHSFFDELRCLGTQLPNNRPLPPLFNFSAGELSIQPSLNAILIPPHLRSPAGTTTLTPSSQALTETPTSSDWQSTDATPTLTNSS
p38 MAPKα, sequence (Q16539 whole entry): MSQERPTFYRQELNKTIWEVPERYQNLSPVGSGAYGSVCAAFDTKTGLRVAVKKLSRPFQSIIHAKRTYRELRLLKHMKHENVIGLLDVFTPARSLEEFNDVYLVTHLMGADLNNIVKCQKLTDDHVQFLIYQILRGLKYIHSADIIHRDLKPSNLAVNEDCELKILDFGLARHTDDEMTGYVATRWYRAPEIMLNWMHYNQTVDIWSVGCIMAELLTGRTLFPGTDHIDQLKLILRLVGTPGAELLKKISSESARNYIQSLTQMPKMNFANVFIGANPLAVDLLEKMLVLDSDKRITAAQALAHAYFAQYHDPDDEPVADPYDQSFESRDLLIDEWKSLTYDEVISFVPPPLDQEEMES

For the molecule `C#Cc1cccc(Nc2nccc(Oc3ccc(NC(=O)Nc4cc(C(C)(C)C)nn4-c4ccc(OC)nc4)c4ccccc34)n2)c1` [Example 1, 1-(3-(tert-Butyl)-1-(6-methoxypyridin-3-yl)-1H-pyrazol-5-yl)-3-(4-((2-((3-ethynylphenyl)-amino)pyrimidin-4-yl)oxy)naphthalen-1-yl)urea], the IC50 in assay [1] (LPS-stimulated PBMCs) was 0.0115 µM; in assay [2] (HT-29, IL-1β-stimulated HT29 cells, read-out: IC50 Values for Inhibition of Cytokine Release HT29 cells IL-8), 0.0174 µM; in [3] (CD3/CD28 stimulated PBMCs, read-out: IC50 Values for Inhibition of Cytokine Release PBMCs IL-2), 0.0398 µM; in [4], over 10 µM; in assay [5], 0.028 µM; in assay [6], 0.316 µM. Also, the IC50 was 0.0036 µM in assay [7] (dU937, LPS-stimulated d-U937 cells, method describes REC50 relative to BIRB796, read-out: IC50 Values for Inhibition of Cytokine Release dU937 cells TNFα); 0.0021 µM in assay [7] (dU937, LPS-stimulated d-U937 cells, read-out: IC50 Values for Inhibition of Cytokine Release dU937 cells IL-8); 0.077 µM in [8].
For the molecule `COc1ccc(-n2nc(C(C)(C)C)cc2NC(=O)Nc2ccc(Oc3ccnc(Nc4cccc(N=S(C)(C)=O)c4)n3)c3ccccc23)cn1` [Example 2], the IC50 in assay [1] was found to be 0.0053 µM; in assay [2] (setting [10]) it was 0.0185 µM; in assay [3] (setting [11]) it was 0.0511 µM; in assay [4] it was 1.85 µM; in assay [5], 0.008 µM; in assay [6], 0.081 µM. Besides, the IC50 in [7] (setting [12]) came to 0.0052 µM; in assay [7] (setting [13]) it was 0.0165 µM; in assay [8], 0.015 µM.
On to `COc1ccc(-n2nc(C(C)(C)C)cc2NC(=O)Nc2ccc(Oc3ccnc(Nc4cccc(OS(C)(=O)=O)c4)n3)c3ccccc23)cn1` [Example 3, 3-(4-((4-(3-(3-(tert-Butyl)-1-(6-methoxypyridin-3-yl)-1H-pyrazol-5-yl)ureido)naphthalen-1-yl)oxy)pyrimidin-2-yl)amino)phenyl methanesulfonate], for which the IC50 in assay [1] is 0.0015 µM; in [2] (setting [10]) it was 0.0022 µM; in assay [3] (setting [14]), 0.0012 µM; in assay [3] (setting [11]), 0.0099 µM; in assay [4], 2.54 µM; in assay [6], 0.028 µM. In addition, the IC50 in assay [7] (setting [13]) is 0.0003 µM; in assay [8], 0.066 µM.
As to `COCCOCCOCCOc1cccc(Nc2nccc(Oc3ccc(NC(=O)Nc4cc(C(C)C)nn4-c4ccc(C)cc4)c4ccccc34)n2)c1` [Example 9, 1-(3-Isopropyl-1-(P-tolyl)-1H-pyrazol-5-yl)-3-(4-((2-((3-(2-(2-(2-methoxyethoxy)ethoxy)-ethoxy)phenyl)amino)pyrimidin-4-yl)oxy)naphthalen-1-yl)urea], the IC50 in [1] was 0.0031 µM; in [2] (setting [10]), 0.0045 µM; in [4], 3.72 µM; in assay [5], 0.154 µM; in [6], 0.026 µM; in assay [7] (setting [12]), 0.0028 µM. Further, the IC50 in assay [7] (setting [13]) is 0.0015 µM; in assay [8], over 1 µM.
For `Cc1ccc(-n2nc(C(C)C)cc2NC(=O)Nc2ccc(Oc3ccnc(Nc4cccc(OS(C)(=O)=O)c4)n3)c3ccccc23)cc1` [Example 11, 3-(4-((4-(3-(3-Isopropyl-1-(p-tolyl)-1H-pyrazol-5-yl)ureido)naphthalen-1-yl)oxy)pyrimidin-2-yl)amino)phenyl methanesulfonate], the concentration for half-maximal inhibition (IC50) in assay [1] came out at 0.0036 µM; in assay [2] (setting [10]), 0.0053 µM; in assay [3] (setting [11]) it was 0.151 µM; in assay [4], 8.65 µM; in assay [5], 0.02 µM; in assay [6], 0.05 µM. The IC50 in assay [7] (setting [12]) is 0.0014 µM; in assay [7] (setting [13]), 0.0009 µM; in [8] it was over 0.622 µM.
As to `COc1cc(Nc2nccc(Oc3ccc(NC(=O)Nc4cc(C(C)C)nn4-c4ccc(C)cc4)c4ccccc34)n2)cc(OS(C)(=O)=O)c1` [Example 12, 3-((4-((4-(3-(3-Isopropyl-1-(p-tolyl)-1H-pyrazol-5-yl)ureido)naphthalen-1-yl)oxy)pyrimidin-2-yl)amino)-5-methoxyphenyl methanesulfonate], the IC50 was determined as 0.0028 µM in [1]; 0.0043 µM in assay [2] (setting [10]); 0.0047 µM in assay [3] (setting [14]); 0.0248 µM in assay [3] (setting [11]); 0.039 µM in [5]; 0.422 µM in assay [6]. Further, the values for the IC50 in [7] (setting [13]) and in [8] were 0.0004 µM and 0.238 µM, respectively.
On to `COc1cc(Nc2nccc(Oc3ccc(NC(=O)Nc4cc(C(C)C)nn4-c4ccc(C)cc4)c4ccccc34)n2)cc(S(=O)(=O)C2CC2)c1` [Example 18, 1-(4-((2-((3-(Cyclopropylsulfonyl)-5-methoxyphenyl)amino)pyrimidin-4-yl)oxy)naphthalen-1-yl)-3-(3-isopropyl-1-(p-tolyl)-1H-pyrazol-5-yl)urea], for which the IC50 in [1] amounted to 0.0021 µM; in [2] (setting [10]) it was 0.0062 µM; in assay [3] (setting [11]) it was 0.0846 µM; in [4], 2.9 µM; in assay [5] it was 0.027 µM; in assay [6], 0.102 µM. This molecule displayed an IC50 in assay [8] of 0.358 µM. For the same molecule, the LP inflammation amounted to 2.8 ± 0.4 in [9] (1 mg/kg) and 2.6 ± 0.3 in assay [9] (5 mg/kg). Also, the figures for the Ulcer grade in assay [9] (1 mg/kg) and in assay [9] (5 mg/kg) were 3.3 ± 0.4 and 3.0 ± 0.5, respectively. Besides, in [9], the “inflammatory cell infiltrate in the reticular and laminar propria zone” value was “marked reduction”. For the same molecule, in assay [9], the “ulcer grade and epithelial repair compared to the vehicle control” value was “marked improvements”.
Turning to `COc1cc(Nc2nccc(Oc3ccc(NC(=O)Nc4cc(C(C)C)nn4-c4ccc(C)cc4)c4ccccc34)n2)cc(SCCO)c1` [Example 22], the IC50 was determined as 0.0023 µM in assay [1]; 0.0051 µM in assay [2] (setting [10]); 0.0307 µM in assay [3] (setting [11]); 0.047 µM in [5]; 0.114 µM in assay [6]; 0.134 µM in assay [8]. Also, the LP inflammation in assay [9] (1 mg/kg) was determined as 2.6 ± 0.3; in [9] (5 mg/kg), 3.8 ± 0.3. The Ulcer grade in assay [9] (1 mg/kg) is given as 2.8 ± 0.4; in assay [9] (5 mg/kg) it was 3.7 ± 0.4. In addition, the “inflammatory cell infiltrate in the reticular and laminar propria zone” value in assay [9] is recorded as “marked reduction”. In assay [9], the “ulcer grade and epithelial repair compared to the vehicle control” value is “marked improvements”.
In the case of `COCCOCCOCCOc1cc(Nc2nccc(Oc3ccc(NC(=O)Nc4cc(C(C)(C)C)nn4-c4ccc(C)cc4)c4ccccc34)n2)cc(OC)c1` [Example 37, 1-(3-(tert-Butyl)-1-(p-tolyl)-1H-pyrazol-5-yl)-3-(4-((2-((3-methoxy-5-(2-(2-(2-methoxy-ethoxy)ethoxy)ethoxy)phenyl)amino)pyrimidin-4-yl)oxy)naphthalen-1-yl)urea], the IC50 in assay [1] amounted to 0.0018 µM; in [2] (setting [10]), 0.0017 µM; in assay [3] (setting [14]), 0.0015 µM; in assay [3] (setting [11]), 0.0348 µM; in [4], 6.36 µM; in [5], 0.011 µM. The IC50 in assay [6] turned out to be 0.153 µM; in assay [7] (setting [12]) it was 0.0017 µM; in [8] it was 0.036 µM.
For the molecule `COCCOCCOCCOc1cc(Nc2nccc(Oc3ccc(NC(=O)Nc4cc(C(C)(C)C)nn4-c4ccc(N(C)C)cc4)c4ccccc34)n2)cc(OC)c1` [Example 63, 1-(3-(tert-Butyl)-1-(4-(dimethylamino)phenyl)-1H-pyrazol-5-yl)-3-(4-((2-((3-methoxy-5-(2-(2-(2-methoxyethoxy)ethoxy)ethoxy)phenyl)amino)pyrimidin-4-yl)oxy)naphthalen-1-yl)urea], the IC50 in [1] worked out at 0.002 µM; in assay [2] (setting [10]), 0.002 µM; in assay [3] (setting [14]), 0.0015 µM; in assay [3] (setting [11]) it was 0.0762 µM; in assay [4], 4.82 µM; in assay [5] it was 0.013 µM. Further, the IC50 was found to be 0.187 µM in assay [6], 0.0006 µM in assay [7] (setting [12]) and 0.0004 µM in [7] (setting [13]).

These data come from patent publication US9732063B2, “Kinase inhibitors” (RESPIVERT LIMITED, priority 2012, dated 2017).
